Source: patent US6737383B1, “Herbicidal oxadiazolidines” (priority 1999, dated 2004)

Experiments:
[1] = tested on: smallflower flatsedge; assay: Test B flood test smallflower flatsedge; assay type: in vivo, Cyperus difformis
In short: (§1)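 Read-out is a visual response score from 0 (no effect) to 10 (complete control), assigned by comparison with untreated controls. Treatment was applied at the 2-leaf stage, and plants stayed in the greenhouse for twelve to sixteen days before scoring.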

[2] = tested on: duck salad; assay: Test B flood test duck salad; assay type: in vivo, Heteranthera limosa
In short: as §1

[3] = tested on: bedstraw; assay: Test B pre/postemergence bedstraw; assay type: in vivo, Galium aparine
In short: (§2)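 Herbicidal effect was estimated by eye on a ten-point control scale after plants spent twelve to sixteen days in a greenhouse following soil or foliar treatment. Foliar sprays targeted plants at one to four leaves; all doses were formulated in a non-phytotoxic solvent with surfactant.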

[4] = tested on: wild oat; assay: Test B pre/postemergence wild oat; assay type: in vivo, Avena fatua
In short: as §2

[5] = tested on: purple nutsedge; assay: Test B pre/postemergence purple nutsedge; assay type: in vivo, Cyperus rotundus
In short: as §2

[6] = tested on: morningglory; assay: Test B pre/postemergence morningglory; assay type: in vivo, Ipomoea hederacea
In short: as §2

[7] = tested on: sugar beet; assay: Test B pre/postemergence sugar beet; assay type: in vivo, Beta vulgaris
In short: as §2

[8] = tested on: velvetleaf; assay: Test B pre/postemergence velvetleaf; assay type: in vivo, Abutilon theophrasti
In short: as §2

[9] = tested on: pigweed; assay: Test B pre/postemergence pigweed; assay type: in vivo, Amaranthus retroflexus
In short: as §2

[10] = tested on: bamyardgrass; assay: Test B flood test barnyardgrass; assay type: in vivo, Echinochloa crus-galli
In short: as §1

[11] = tested on: soybean; assay: Test B pre/postemergence soybean; assay type: in vivo, Glycine max
In short: as §2

[12] = tested on: crabgrass; assay: Test B pre/postemergence crabgrass; assay type: in vivo, Digitaria sanguinalis
In short: as §2

[13] = tested on: rice; assay: Test B flood test rice; assay type: in vivo, Oryza sativa
In short: as §1

[14] = tested on: rape; assay: Test B pre/postemergence rape; assay type: in vivo, Brassica napus
In short: as §2

[15] = tested on: wheat; assay: Test B pre/postemergence wheat; assay type: in vivo, Triticum aestivum
In short: as §2

[16] = tested on: blackgrass; assay: Test B pre/postemergence blackgrass; assay type: in vivo, Alopecurus myosuroides
In short: as §2

[17] = tested on: giant foxtail; assay: Test B pre/postemergence giant foxtail; assay type: in vivo, Setaria faberii
In short: as §2

[18] = tested on: surinam grass; assay: Test B pre/postemergence surinam grass; assay type: in vivo, Brachiaria decumbens
In short: as §2

[19] = tested on: corn; assay: Test B pre/postemergence corn; assay type: in vivo, Zea mays
In short: as §2

[20] = tested on: cocklebur; assay: Test B pre/postemergence cocklebur; assay type: in vivo, Xanthium strumarium
In short: as §2

[21] = Rate 62 g/ha, flood test species, Pre-emergence, visual evaluation after twelve to sixteen days
[22] = Rate 125 g/ha, under heading Pre-emergence, flood test species, visual evaluation after twelve to sixteen days
[23] = Rate 250 g/ha, Pre-emergence (flood test species), scale 0 to 10, 0 is no effect, 10 is complete control
[24] = Rate 500 g/ha, Pre-emergence section of Table B, 0 to 10 scale (0 no effect, 10 complete control)
[25] = Postemergence, Rate 62 g/ha, scale 0 to 10, 0 is no effect, 10 is complete control
[26] = Preemergence, Rate 62 g/ha, scale 0 to 10 (0 no effect, 10 complete control)
[27] = Preemergence, Rate 125 g/ha, scale of 0 to 10 where 0 is no effect and 10 is complete control
[28] = Preemergence, Rate 500 g/ha, scale of 0 to 10 where 0 is no effect and 10 is complete control
[29] = Postemergence, Rate 125 g/ha, scale of 0 to 10 where 0 is no effect and 10 is complete control
[30] = Postemergence, Rate 250 g/ha, scale of 0 to 10, 0 is no effect, 10 is complete control
[31] = Postemergence, Rate 500 g/ha, scale of 0 to 10 where 0 is no effect and 10 is complete control

SMILES: C=C(Cn1c(=O)on(C(=O)N(c2ccccc2)C(C)C)c1=O)c1cccc(Cl)n1 [Compound 605]
- Plant response rating, S. Flatsedge (0 to 10 scale, 0 is no effect, 10 is complete control) [1, 21]: 0
- S. Flatsedge plant response rating (0 to 10 scale, 0 is no effect, 10 is complete control) [1, 22]: 0
- S. Flatsedge plant response rating [1, 23]: 0
- S. Flatsedge plant response rating [1, 24]: 0
- Plant response rating, Ducksalad (0 to 10 scale, 0 is no effect, 10 is complete control) [2, 21]: 0
- Ducksalad plant response rating (0 to 10 scale, 0 is no effect, 10 is complete control) [2, 22]: 0
- Ducksalad plant response rating [2, 23]: 0
- Ducksalad plant response rating [2, 24]: 0
- Plant response rating, Bedstraw [3, 25]: 0
- Bedstraw plant response rating [3, 26]: 0
- Bedstraw plant response rating [3, 27]: 0
- Bedstraw plant response rating (0 to 10 scale) ([3]; Preemergence, Rate 250 g/ha): 0
- Bedstraw plant response rating [3, 28]: 0
- Plant response rating, Wild oats [4, 25]: 2
- Plant response rating, Wild oats [4, 29]: 1
- Wild oats plant response rating [4, 30]: 1
- Plant response rating, Wild oats [4, 31]: 2
- Wild oats plant response rating [4, 26]: 0
- Wild oats plant response rating [4, 27]: 0
- Plant response rating, Wild oats [4, 28]: 0
- Plant response rating, Nutsedge [5, 25]: 0
- Plant response rating, Nutsedge [5, 29]: 0
- Nutsedge plant response rating [5, 30]: 0
- Plant response rating, Nutsedge [5, 31]: 0
- Nutsedge plant response rating [5, 26]: 0
- Nutsedge plant response rating [5, 27]: 0
- Plant response rating, Nutsedge [5, 28]: 0
- Plant response rating, Morningglory [6, 29]: 6
- Morningglory plant response rating [6, 30]: 9
- Plant response rating, Morningglory [6, 31]: 10
- Morningglory plant response rating [6, 26]: 0
- Morningglory plant response rating [6, 27]: 0
- Plant response rating, Sugarbeets [7, 25]: 0
- Plant response rating, Sugarbeets [7, 29]: 0
- Sugarbeets plant response rating [7, 30]: 0
- Plant response rating, Sugarbeets [7, 31]: 0
- Sugarbeets plant response rating [7, 26]: 0
- Sugarbeets plant response rating [7, 27]: 0
- Plant response rating, Sugarbeets [7, 28]: 0
- Plant response rating, Velvetleaf [8, 25]: 0
- Plant response rating, Velvetleaf [8, 29]: 0
- Velvetleaf plant response rating [8, 30]: 0
- Plant response rating, Velvetleaf [8, 31]: 0
- Velvetleaf plant response rating [8, 26]: 0
- Velvetleaf plant response rating [8, 27]: 0
- Plant response rating, Velvetleaf [8, 28]: 0
- Plant response rating, Redroot pigweed [9, 25]: 0
- Plant response rating, Redroot pigweed [9, 29]: 0
- Redroot pigweed plant response rating [9, 30]: 0
- Plant response rating, Redroot pigweed [9, 31]: 0
- Redroot pigweed plant response rating [9, 26]: 0
- Redroot pigweed plant response rating [9, 27]: 0
- Plant response rating, Redroot pigweed [9, 28]: 0
- Plant response rating, Barnyardgrass (0 to 10 scale, 0 is no effect, 10 is complete control) [10, 21]: 0
- Barnyardgrass plant response rating (0 to 10 scale, 0 is no effect, 10 is complete control) [10, 22]: 0
- Barnyardgrass plant response rating [10, 23]: 0
- Barnyardgrass plant response rating [10, 24]: 0
- Plant response rating, Soybean [11, 25]: 2
- Plant response rating, Soybean [11, 29]: 2
- Soybean plant response rating [11, 30]: 3
- Plant response rating, Soybean [11, 31]: 5
- Soybean plant response rating [11, 26]: 0
- Soybean plant response rating [11, 27]: 0
- Plant response rating, Soybean [11, 28]: 0
- Plant response rating, Crabgrass [12, 25]: 0
- Plant response rating, Crabgrass [12, 29]: 0
- Crabgrass plant response rating [12, 30]: 1
- Plant response rating, Crabgrass [12, 31]: 3
- Crabgrass plant response rating [12, 26]: 0
- Crabgrass plant response rating [12, 27]: 3
- Plant response rating, Crabgrass [12, 28]: 10
- Plant response rating, Rice (0 to 10 scale, 0 is no effect, 10 is complete control) [13, 21]: 0
- Rice plant response rating (0 to 10 scale, 0 is no effect, 10 is complete control) [13, 22]: 0
- Rice plant response rating [13, 23]: 0
- Rice plant response rating [13, 24]: 0
- Plant response rating, Rape [14, 25]: 0
- Plant response rating, Rape [14, 29]: 0
- Rape plant response rating [14, 30]: 0
- Plant response rating, Rape [14, 31]: 0
- Rape plant response rating [14, 26]: 0
- Rape plant response rating [14, 27]: 0
- Plant response rating, Rape [14, 28]: 0
- Plant response rating, Wheat [15, 25]: 1
- Plant response rating, Wheat [15, 29]: 1
- Wheat plant response rating [15, 30]: 1
- Plant response rating, Wheat [15, 31]: 2
- Wheat plant response rating [15, 26]: 0
- Wheat plant response rating [15, 27]: 0
- Plant response rating, Wheat [15, 28]: 0
- Plant response rating, Blackgrass [16, 25]: 0
- Plant response rating, Blackgrass [16, 29]: 0
- Blackgrass plant response rating [16, 30]: 0
- Plant response rating, Blackgrass [16, 31]: 0
- Blackgrass plant response rating [16, 26]: 0
- Blackgrass plant response rating [16, 27]: 0
- Blackgrass plant response rating (0 to 10 scale) ([16]; Preemergence, Rate 250 g/ha): 0
- Blackgrass plant response rating [16, 28]: 0
- Plant response rating, Giant foxtail [17, 25]: 0
- Plant response rating, Giant foxtail [17, 29]: 0
- Giant foxtail plant response rating [17, 30]: 0
- Plant response rating, Giant foxtail [17, 31]: 2
- Giant foxtail plant response rating [17, 26]: 2
- Giant foxtail plant response rating [17, 27]: 10
- Plant response rating, Giant foxtail [17, 28]: 10
- Plant response rating, B. signalgrass [18, 25]: 0
- Plant response rating, B. signalgrass [18, 29]: 0
- B. signalgrass plant response rating [18, 30]: 0
- Plant response rating, B. signalgrass [18, 31]: 0
- B. signalgrass plant response rating [18, 26]: 0
- B. signalgrass plant response rating [18, 27]: 0
- B. signalgrass plant response rating (0 to 10 scale, 0 is no effect, 10 is complete control) ([18]; Preemergence, Rate 250 g/ha): 0
- B. signalgrass plant response rating [18, 28]: 0
- Plant response rating, Corn [19, 25]: 0
- Plant response rating, Corn [19, 29]: 0
- Corn plant response rating [19, 30]: 0
- Plant response rating, Corn [19, 31]: 0
- Corn plant response rating [19, 26]: 0
- Corn plant response rating [19, 27]: 0
- Corn plant response rating (0 to 10 scale) ([19]; Preemergence, Rate 250 g/ha): 0
- Plant response rating, Corn [19, 28]: 0
- Plant response rating, Cocklebur [20, 25]: 0
- Plant response rating, Cocklebur [20, 29]: 0
- Cocklebur plant response rating [20, 30]: 0
- Plant response rating, Cocklebur [20, 31]: 0
- Cocklebur plant response rating [20, 26]: 0
- Cocklebur plant response rating [20, 27]: 0
- Cocklebur plant response rating (0 to 10 scale) ([20]; Preemergence, Rate 250 g/ha): 0
- Plant response rating, Cocklebur [20, 28]: 0
